Experimental data as given in patent publication US20240025849A1 (MAX DELBRÜCK-CENTRUM FÜR MOLEKULARE MEDIZIN IN DER …, priority 2020, published 2024).
“Also recorded” adds a separate entry of the source. Read-outs that look alike come from different tables or passages of the source.

System: primary cultured neonatal microglia
Assay: LPS induced NO release, Griess assay, laboratory scaled setup
Format: cell-based, mouse
Conditions: for IC50: 96 well plate, 1 h C1, then 1 μg/ml LPS 48 h, 2 nM to 20 μM, read-out: IC50, LPS induced NO release
Experimental: Primary cultured neonatal microglia. For preparation of cultured neonatal microglia, P0-P3 mice were used. 10 brains were extracted, meninges and cerebellum were removed and put on ice with Hank's balanced salt solution (HBSS). The dissected brains were washed 3 times before adding 400 μL trypsin (0.1 mg/L) and DNAse (5 μg/L) in phosphate buffered saline (PBS). After 2 min of incubation with this solution, the reaction was blocked by adding plain medium. After removal of the medium, 1 mg DNAse was added and the cells were mechanically dissociated, with a Pasteur pipette followed by a glass pipette. The cells were centrifuged for 10 min at 129 g at 4° C. The supernatant was discarded. The pellet was resuspended in plain medium and plated (2.5 brains/flask) in Poly-L-Lysine coated flasks. The cells were washed after 2 days with PBS and incubated for another 7 days in plain medium. Afterwards the medium was replaced by plain medium with 33% L929 conditioned medium. After 2 days, cells were harvested by shaking them for 30 min at 150 rpm. The supernatant was centrifuged for 10 min at 129 g at 4° C. The cells were plated into a 96 well plate (100 000 cells/well, 200 μL medium per well). This procedure could be repeated 2 times with a 2 day interval.
Griess assay. Cells were seeded according to the protocols described above, after compounds and stimuli were added, 100 μl of supernatant was transferred into a new 96 well plate and 100 μl freshly mixed Griess reagent were added. Griess reagent was composed of reagent A (100 mg Naphthylethylene in 50 ml aqua dest.) and reagent B (1 g Sulfanilamide, […] H3PO4 (85%) in 44 mL aqua dest.) mixed 1:1. The solution was carefully mixed and the absorbance was determined in a microplate reader at a wavelength of 550 nm.
Dissolved sodium nitrite in plain medium served as a standard. Total amount of nitrite was calculated by a linear regression of the standard curve.
The activity of the compounds listed in column 1 of Table 1 as inhibitors of NO production was compared in murine primary cultured neonatal microglia as described above.

COc1ccc(NC(=O)C(NC(=O)C2CCCN2C(=O)OCc2ccccc2)c2ccc(OC)cc2)cc1 (centres unmarked) [C1]
IC50: 250 nM
NO release in unstimulated microglia (C1 alone 0.025, 0.25, 2.5 μM, 48 hours, no LPS): did not show any significant difference; also recorded: did neither change the NO release
IC50 (Mus musculus, Microglia): 252 nM
NO concentration in supernatant vs plain medium / DMSO (post-treatment with 2.5 μM C1 after 24 hours LPS, from 8 hours (plain medium), 12 hours (DMSO)): significantly reduced; also recorded: significant reduction
calculated plateau of NO concentration in supernatant (post-treatment: 24 hours LPS, medium change, then 2.5 μM C1 up to 60 hours): 7 µM
